Experimental data as given in ChEMBL document CHEMBL3507680, “University of Dundee, Gates Library screen for HepG2 cell viability”.

Experiment: Human HepG2 cell viability assay in 384 well format
Assay type: toxicity, cell-based
Design: dose 125 nL, time 70.5 hour; concentration not given beside the values
Conditions: HepG2 cells, read-out: Inhibition

SMILES	cytotoxicity at 70.5 h [%]
COCC(=O)N1CC[C@H]2C[C@H](c3nnc(C4CC4)o3)O[C@@H]2C1	-8.34
CN(Cc1ccco1)C(=O)CN1CCOC(Cn2cccn2)C1 (stereo unspecified)	-1.5
COCc1cc(N2CCN(c3ccc(Cl)cn3)CC2)n2nccc2n1	-0.783
CC(C)CS(=O)(=O)CC(=O)NC(C)c1nnc2n1CCC2 (stereo unspecified)	-2.61
Nc1nccnc1C(=O)N1CC(OCc2cccc3ccccc23)C1	9.66
CC1CN(CC(=O)NC(=O)NCc2cccs2)CCN1CC(F)(F)F (stereo unspecified)	-11
CN1CCC(NC(=O)c2cc(F)cc(Cl)c2O)C1=O (stereo unspecified)	-2.94
CN(C)CCCn1ccc(-c2cccc(-c3cncnc3)c2)n1	-9.25
CC(=O)N1CCC(c2ncc(C(=O)Nc3ccccc3)c(C)n2)CC1	-4.36
COc1ncc(CN2CCCC(c3[nH]ncc3S(C)(=O)=O)C2)cn1 (stereo unspecified)	-7.31
CCc1n[nH]c(C2CN(C(=O)c3cc(C(N)=O)cs3)CCO2)n1 (stereo unspecified)	-12.1
Cc1csc(CNC(=O)NCc2ccc3c(c2)OCCO3)n1	-14.3
CC(C)(C)NC(=O)C1CSCN1S(=O)(=O)c1ccc(F)cc1 (stereo unspecified)	-1.49
Cc1noc(C)c1C1CCCN1C(=O)c1cn2ccsc2n1 (stereo unspecified)	-3.13
COc1cccc(OCC2CCCN(C(C)=O)C2)c1 (stereo unspecified)	-18.9
COCc1nc(-c2ccnc(N3CCNCC3)n2)no1	2.75
CN1CCC(NC(=O)c2cc(Br)cc(Cl)c2O)C1=O (stereo unspecified)	-1.22
CCOC(=O)c1nc(CN2CCC(NC(=O)C(C)C)CC2)cs1	-3.69
O=C(CCc1nc2cccnc2[nH]1)Nc1ccc2c(c1)OCC(=O)N2	-10.5
COCCNC(=O)[C@@]12CCO[C@@H]1CCN(Cc1ccncc1)C2	-10.2
Cc1noc(C)c1NC(=O)CCn1cc(Br)ccc1=O	-8.23

SMILES	cytotoxicity at 70.5 h [%]
Cc1nc(-c2cc(F)c3c(c2)CC(CN)O3)c[nH]1 (stereo unspecified)	3.79
O=C(NCCO)C1(Cc2ccccc2-c2ccncc2)CCOCC1	-7.35
Cc1cc(C)n(CC2CCCN2CCc2ccccn2)n1 (stereo unspecified)	1.45
CN(C(=O)COCc1ccccc1)C1CCN(CC2CCOC2)CC1 (stereo unspecified)	-7.68
CCS(=O)(=O)N1CCC2(CCCN(Cc3cc(OC)ccc3F)C2)C1 (stereo unspecified)	-6.66
CCN1Cc2c(C(=O)NC(C)C(C)C)ncn2-c2ccccc2S1(=O)=O (stereo unspecified)	6.35
Cc1nccc(CN2CC[C@H](Oc3cccc(F)c3)[C@@](C)(O)C2)n1	-3.99
CCc1ocnc1C(=O)N1CCOC(c2nc(C)n[nH]2)C1 (stereo unspecified)	-1.72
COc1ccc(CCNC(=O)C(C)Nc2cc(C)ccc2C)cc1 (stereo unspecified)	-8.81
Cc1cc(C)n(C2CN(CC(O)c3cc(F)ccc3F)C2)n1 (stereo unspecified)	6.16
Cc1cc(C(=O)NC2CCN(c3ncccc3C#N)CC2)on1	-6.25
CC(NC1CCN(CCS(C)(=O)=O)CC1)c1ccc(Cl)cc1 (stereo unspecified)	19.3
CN(Cc1ccco1)[C@@H]1CN(Cc2cccnc2)[C@@H]2CCCO[C@H]12	-12.5
O=C(c1cnn2ccccc12)N1CCCC(OCc2ccccn2)C1 (stereo unspecified)	-6.94
Cc1cc(C)c2cc(CNCc3ccccc3)c3nn(C)c(=O)n3c2c1	3.71
CC(C)(C)n1ncc2c(=O)[nH]c(N3CCN(CCO)CC3)nc21	-1.33
CC(=O)N1CCN(c2ccc3ccc(C(=O)NC4CCCC4)cn23)CC1	-14.6
Cc1nc(N2CCC3(CCOC3)C2)c2cc[nH]c2n1 (stereo unspecified)	27.9
Cc1cc(N2CCC(NCCOc3ccccc3)CC2)nc(C)n1	3.15
CCc1cnc(CN(C)C2CCN(CC3CCN(C(C)=O)CC3)C2)o1 (stereo unspecified)	10
COc1cccc(N2CCN(C(=O)C(O)CC(C)C)CC2=O)c1 (stereo unspecified)	-2.41

SMILES	cytotoxicity at 70.5 h [%]
FC(F)CN1CCOC(Cn2cccn2)C1 (stereo unspecified)	-3.37
COCC[C@]1(O)CCN(C2CCN(C(=O)C3CCC3)CC2)C[C@H]1C	-9.1
Cc1cc(N2CCC(n3cc(CN4CCNCC4)nn3)CC2)ccn1	24.4
CC(C)(C)S(=O)(=O)CCNC(=O)NCCCc1cccc(F)c1	29
Nc1nc2nc(C3CCN(C(=O)c4cscn4)C3)ccc2s1 (stereo unspecified)	-5.85
CCN1CCc2c(sc3c2C(=O)NC(/C=C\c2ccccc2)N3)C1 (stereo unspecified)	16.4
Cc1cc(CN2C[C@@H](C)[C@@]3(CCN(C)C3=O)C2)oc1C	-5.99
COCC1c2nnn(CC3CC3)c2CCN1C(=O)c1sccc1C (stereo unspecified)	-11.5
CCCN(C(=O)CNC1CCc2ncnn2C1)C1=CCCCC1 (stereo unspecified)	-10.9
NC(=O)c1ccc(OCC(=O)NC2CCc3c(F)cccc32)cc1 (stereo unspecified)	-5.14
COCCN1C[C@H]2[C@@H](C1)N(C(=O)COc1ccccc1)CC[C@H]2OC	-11.3
O=C(Nc1cccn(Cc2ccc(F)cc2)c1=O)c1csnn1	-0.164
Cc1ccc(N2CCC(Nc3ccc4nnc(C)n4n3)CC2)nc1	-1.55
Cc1nc2ccccc2nc1CN1CCCC1c1c(C)nn(C)c1C (stereo unspecified)	-4.26
O=C(Nc1cnccn1)[C@H]1C[C@H]2OCC[C@H]2N(c2ncc(F)cn2)C1	-11.1
NCC(=O)N1CCCC(O)(CN2CCN(c3ccccc3)CC2)CC1 (stereo unspecified)	4.71
CC(C)Oc1ccc(CN2CCN3CCN(C)CC3C2)cc1CO (stereo unspecified)	-5.57
Cc1nsc(C(=O)NCCc2cccs2)n1	-5.79
Cn1nccc1CN1CCOC(c2cccc(-c3cncnc3)n2)C1 (stereo unspecified)	14.3
N#Cc1cn(C2CC2)c(=O)n(CC(O)c2ccccc2F)c1=O (stereo unspecified)	-17
NC(=O)C1CCN(CCc2ccc(NCc3cscn3)cc2)CC1	-12.5

SMILES	cytotoxicity at 70.5 h [%]
CN(CCCc1nccn1C)c1nccc(N2CCC(O)C2)n1 (stereo unspecified)	7.29
O=C([C@H]1C[C@H]2OCC[C@H]2N(C(=O)c2ccncc2)C1)N1CCCCO1	3.71
Cn1cc(C(=O)N2CCCC2c2[nH]ncc2C(N)=O)cn1 (stereo unspecified)	-5.5
O=S(=O)(c1ccc(F)cc1)N1CCCCC1c1cc[nH]n1 (stereo unspecified)	-6.41
Cc1ccc(CN2CCN(c3cncc(N(C)C)n3)CC2=O)cc1C	-7.53
O=C(c1ccc(-c2cn[nH]c2)nc1)N1CCC(N2CCOCC2)CC1	-3.67
CCN1CCCC1CNCc1cc2cc(OC)c(OC)cc2[nH]c1=O (stereo unspecified)	-1.47
CCOCC1CN(Cc2ccco2)Cc2ccnn2C1 (stereo unspecified)	-5.17
O=C(C1CCOC1)N1CCc2ncnc(NC3CCC3)c2CC1 (stereo unspecified)	-2.47
COCCC(=O)N1C[C@H]2CN(Cc3cccc(C)n3)C(=O)[C@H]2C1	-11.1
O=C(Nc1ccc2c(c1)OCO2)c1ccc(N2CCCC2)nn1	20.4
CC(C)c1ncncc1C(=O)NCCN1CCCS1(=O)=O	-12.7
COc1c(CNCC(O)COc2ccc3c(c2)OCO3)c(C)nn1C (stereo unspecified)	14.9
CCN(Cc1noc(C)n1)C(=O)C(c1ccccc1C)N(C)C (stereo unspecified)	-6.06
COc1cc(C(C)=O)ccc1OC12CCCN(CC1)C2 (stereo unspecified)	12.8
Cc1cccc(-c2noc(CN3CC(n4cccn4)C3)n2)c1	-8.11
CC(=O)N1CC2(CCCN2Cc2ccc(Cl)cc2)Cc2ccccc21 (stereo unspecified)	31.4
O=C(c1ccc(CN2CCCCC2)cc1)N1CCCC1c1cccs1 (stereo unspecified)	-0.233
